Results on one compound are retold here after patent publication US12583859B2, “PRMT5 inhibitors and uses thereof” (California Institute of Technology, priority 2019, dated 2026).

By pIC50 is commonly meant the negative decadic logarithm of the IC50, by convention in mol/L. A lower pIC50 goes with a large IC50. One may read the Papp A→B as how fast a substance crosses the layer from the apical side. Lower therefore signals slow passage. The term half-life denotes the time needed for the level to fall by half in the phase considered. The low end stands for rapid decline, the high end for slow decline. Usually solubility stands for the concentration that dissolves in the medium under given conditions.

One data set deals with T1, PRMT5 (Homo sapiens, UniProt O14744).
T1 construct: purchased BPS Biosciences 52002L
The data set can be described thus: PRMT5 Enzymatic Inhibition Assay (chemiluminescence immunoassay of histone H4 methylation). It counts as biochemical. As to conditions: 1 hour at room temperature; 10 μM to 1 nM. How it is done:
A chemiluminescence immunoassay (CLIA) measuring the amount of PRMT5-mediated histone methylation was performed in a 96-well plate format according to the manufacturer's protocol (BPS Biosciences, Cat #52002L). A 96-well plate precoated with histone H4 peptide was rehydrated prior to use. A master mix containing PRMT5 substrate S-adenosylmethionine, reaction buffer, and purified PRMT5 enzyme was added to create reaction-competent wells. Wells lacking either S-adenosylmethionine substrate or PRMT5 enzyme were created as negative controls. 10 test concentrations, ranging from 100 μM to 10 nM, of the test compound were prepared using a 1:3 serial dilution in dH2O. 5 μL of each test concentration was added into a reaction-competent well. 5 μL of a 1% DMSO aqueous solution lacking inhibitor was added into negative control wells and into a reaction-competent well, creating a positive control well. The final reaction volume in each well was 50 μL, and the final concentration of the test compound in each well ranged from 10 μM to 1 nM. A known inhibitor of PRMT5, EPZ015666, was tested in parallel reaction wells as an assay validation control. The 96-well plate was incubated for 1 hour at room temperature.
Upon completion of the incubation, the reaction supernatant in each well was discarded. Wells were washed with 1×TBST and incubated in blocking buffer for 1 hour. The wells were incubated with a primary antibody recognizing methylated Arg3 residues on Histone H4 for 1 hour. The wells were washed with 1×TBST again and subsequently incubated with an HRP-conjugated secondary antibody for 30 minutes. The wells were washed again with 1×TBST, and equal parts of the chemiluminescence reagents were added into each well. Quantification of luminescence was measured in a plate reader.
Luminescence values were normalized against the positive and negative controls to convert the data into % PRMT5 activity. An inhibitor concentration-dependent curve was plotted against % PRMT5 activity and am IC50 value was determined for each compound.

Data set [1] in a line: Caco-2 Assay (Papp A to B). It counts as in vitro ADME. Conditions: human, pH 7.4. How it is done:
The degree of bi-directional human intestinal permeability for compounds was estimated using a Caco-2 cell permeability assay. Caco-2 cells were seeded onto polyethylene membranes in 96-well plates. The growth medium was refreshed every 4 to 5 days until cells formed a confluent cell monolayer. HBSS with 10 mM HEPES at pH 7.4 was used as the transport buffer. Compounds were tested at 2 μM bi-directionally in duplicate. Digoxin, nadolol and metoprolol were included as standards. Digoxin was tested at 10 μM bi-directionally in duplicate, while nadolol and metoprolol were tested at 2 μM in the A to B direction in duplicate. The final DMSO concentration was adjusted to less than 1% for all experiments. The plate was incubated for 2 hours in a CO2 incubator at 37° C., with 5% CO2 at saturated humidity. After incubation, all wells were mixed with acetonitrile containing an internal standard, and the plate was centrifuged at 4,000 rpm for 10 minutes. 100 μL supernatant was collected from each well and diluted with 100 μL distilled water for LC/MS/MS analysis. Concentrations of test and control compounds in starting solution, donor solution, and receiver solution were quantified by LC/MS/MS, using peak area ratio of analyte/internal standard.
The apparent permeability coefficient Papp (cm/s) was calculated using the equation: Papp=(dCr/dt)×Vr/(A×C0), where dCr/dt is the cumulative concentration of compound in the receiver chamber as a function of time (μM/s); Vr is the solution volume in the receiver chamber (0.075 mL on the apical side, 0.25 mL on the basolateral side); A is the surface area for the transport, which is 0.0804 cm^2 for the area of the monolayer; and Co is the initial concentration in the donor chamber (μM). “A” represents a score of 1 or greater, “B” represents a score of 0.2 to 0.99, and “C” represents a score of less than 0.2.
The efflux ratio was calculated using the equation: Efflux Ratio=Papp(BA)/Papp(AB)
Percent recovery was calculated using the equation: % Recovery=100×[(Vr×Cr)+(Vd×Cd)]/(Vd×C0), where Vd is the volume in the donor chambers, which are 0.075 mL on the apical side and 0.25 mL on the basolateral side; and Cd and Cr are the final concentrations of transport compound in donor and receiver chambers, respectively. Measurement of Compound Metabolic Stability

Data set [2] in a line: Measurement of Compound Metabolic Stability in hepatocytes. The format is in vitro ADME. As to conditions: mouse hepatocytes. How it is done:
The metabolic stability of compounds was determined in hepatocytes from human, mice and rats. Compounds were diluted to 5 μM in Williams' Medium E from 10 mM stock solutions. 10 μL of each compound was aliquoted into a well of a 96-well plate and reactions were started by aliquoting 40 μL of a 625,000 cells/mL suspension into each well. The plate was incubated at 37° C. with 5% CO2. At each corresponding time point, the reaction was stopped by quenching with ACN containing internal standards (IS) at a 1:3. Plates were shaken at 500 rpm for 10 min, and then centrifuged at 3,220×g for 20 minutes. Supernatants were transferred to another 96-well plate containing a dilution solution. Supernatants were analyzed by LC/MS/MS. The Half-lives (in minutes) and CLint values (in μL/min/10^6 cells) of example compounds, as measured in mouse hepatocytes, are presented in Table 3. […] For CLint, “A” represents greater than 100 μL/min/10^6 cells, “B” represents 50 to 100 μL/min/10^6 cells, and “C” represents less than 50 μL/min/10^6 cells.
The remaining percent of compound after incubation was calculated using the following equation: % Remaining Compound=Peak Area Ratios of Tested Compound vs. Internal Standard at End Point • Peak Area Ratios of Tested Compound vs. Internal Standard at Start Point Compound half-life and CLint were calculated using the following equations: Ct=C0*e^−k*t(first order kinetics); when […], t1/2=ln 2/k=0.693/k; and CLint=k/(1,000,000 cells/mL) Activity-Guided Selection of Inhibitors

The test system of data set [3] is drug-sensitive cell lines of Table 4. Briefly: Cell Line Growth Retardation Assay, average maximum effect in sensitive cohort. It counts as cell-based, Human. Conditions: average maximum growth inhibition over sensitive cohort of Table 4; 6 days; up to 1 μM. How it is done:
(§1) Cells were seeded at densities of 1,000-5,000 cells per well in 48-well tissue culture plates. After a 24 h rest period, cells were treated with compound at 1 μM, 0.2 μM, 0.04 μM, 0.008 μM, 0.0016 μM, and 0.00032 μM. A group of cells were treated with the vehicle in which the compound was prepared and served as a control. Prior to treatment, cells were counted and this count was used as a baseline for the calculation of growth inhibition. The cells were grown in the presence of compounds for 6 days and were counted on day 6. All cell counting was performed using a Synentec Cellavista plate imager. Growth inhibition was calculated as a ratio of cell population doublings in the presence of compound versus the absence of compound and expressed as the maximum percentage growth inhibition achieved across the range of tested concentrations of the compound (“maximum effect” or “ME”) calculated by fitting curves to data points from each dose-response assay using the Proc NLIN function in SAS for Windows version 9.2 (SAS Institute, Inc.).
(§2) Human cancer cell lines were grouped as “sensitive” or “resistant” to PRMT5 inhibition based on whether their growth was retarded by JNJ-64619178 (i.e., (1S,2R,3R,5R)-3-(2-(2-amino-3-bromoquinolin-7-yl)ethyl)-5-(4-amino-7H-pyrrolo[2,3-d]pyrimidin-7-yl)cyclopentane-1,2-diol) (data not shown; see Table 4). These sensitive and resistant cohorts were interrogated for response to each compound, and ME was calculated for each cell line using the same technique described above. Average MEs for the sensitive and resistant cohorts were calculated as arithmetic means of the group. “A” represents a percent of maximum effect of 60% or greater, “B” represents a percent of maximum effect of 30% to 59%, and “C” represents a percent of maximum effect of 29% or lower.

Data set [4] is described as follows: Water solubility of mesylate salt. The format is physicochemical. Conditions: in water. How it is done: The freebase of Compound 15 was suspended in water, and methansulfonic acid was added (32 mg in 2 mL water). The resulting solution was gently heated and sonicated until a homogenous solution resulted, which was frozen and concentrated to dryness on the lyophilzer. The oily solid that resulted was re-dissolved in water, frozen and concentrated in the same manner to give a water soluble white solid (˜3 mg/mL). Further experiments were more easily conducted with this salt (32.0 mg, 91% yield over 2 steps).

Data set [5] has as its system drug-resistant cell lines of Table 4. Briefly: Cell Line Growth Retardation Assay, average maximum effect in resistant cohort. It counts as cell-based, Human. As to conditions: average maximum growth inhibition over resistant cohort of Table 4; 6 days; up to 1 μM. How it is done: as §1, §2

pIC50: −log10 of the molar value.

T1 sequence (O14744 2-637 limits assumed): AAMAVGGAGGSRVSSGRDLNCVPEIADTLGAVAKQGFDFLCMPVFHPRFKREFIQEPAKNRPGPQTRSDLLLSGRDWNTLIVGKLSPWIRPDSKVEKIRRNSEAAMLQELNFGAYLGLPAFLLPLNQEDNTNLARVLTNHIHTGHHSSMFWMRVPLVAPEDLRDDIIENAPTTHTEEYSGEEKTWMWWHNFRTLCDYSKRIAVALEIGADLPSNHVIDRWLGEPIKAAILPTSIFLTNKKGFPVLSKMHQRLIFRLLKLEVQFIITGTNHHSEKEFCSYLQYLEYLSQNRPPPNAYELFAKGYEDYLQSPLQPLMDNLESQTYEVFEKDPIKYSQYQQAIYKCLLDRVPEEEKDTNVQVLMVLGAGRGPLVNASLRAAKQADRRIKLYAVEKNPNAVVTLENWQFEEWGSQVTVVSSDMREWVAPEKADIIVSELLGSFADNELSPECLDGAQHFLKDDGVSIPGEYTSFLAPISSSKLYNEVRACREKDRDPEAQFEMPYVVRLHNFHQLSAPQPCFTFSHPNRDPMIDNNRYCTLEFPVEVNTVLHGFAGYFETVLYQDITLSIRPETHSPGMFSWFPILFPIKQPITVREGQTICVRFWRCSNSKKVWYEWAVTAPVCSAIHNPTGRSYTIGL
T1 sequence (Q9BQA1 2-342 partner limits assumed): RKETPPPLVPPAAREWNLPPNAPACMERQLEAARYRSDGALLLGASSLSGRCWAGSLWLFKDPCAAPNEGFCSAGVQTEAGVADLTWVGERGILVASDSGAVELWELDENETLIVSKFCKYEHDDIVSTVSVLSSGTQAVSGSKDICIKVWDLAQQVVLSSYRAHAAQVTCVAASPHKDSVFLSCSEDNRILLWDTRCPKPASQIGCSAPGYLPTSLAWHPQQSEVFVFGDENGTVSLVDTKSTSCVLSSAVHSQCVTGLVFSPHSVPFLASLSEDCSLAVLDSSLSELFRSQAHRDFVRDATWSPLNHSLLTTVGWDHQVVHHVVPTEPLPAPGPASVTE

Regarding `Nc1nc2cc(C3C[C@@]4(CO3)C[C@@H](n3ccc5c(N)ncnc53)[C@H](O)[C@@H]4O)ccc2cc1Br` (single isomer, unassigned) [Compound 15], at PRMT5, the pIC50 was no less than 7.00. Also, the Papp A→B at 2 h, 2 μM in data set [1] is less than 0.2 ×10⁻⁶ cm/s. The half-life at 1 μM in data set [2] is greater than 50 min. In addition, the hepatocyte CLint at 1 μM in data set [2] (read-out: CLint (μL/min/10^6)) is less than 50 µL/min/1e6 cells. In addition, in data set [3], the “AvgSens ME (%)” value is on record as “A (a percent of maximum effect of 60% or greater)”. Besides, the solubility in data set [4] is roughly 3000 µg/mL. In addition, the “AvgRes ME (%)” value in data set [5] was “B (a percent of maximum effect of 30% to 59%)”.
